In PubChem BioAssay (NCI) one finds TGI data, which are given here for 7 molecules.

Among the test systems are HOP-92 NSCLC; SR leukemia; CCRF-CEM leukemia; M14 melanoma; U251 CNS; NCI-H23 lung; SF-539 CNS; NCI-H460 lung; OVCAR-4 ovarian; IGROV1 ovarian; HCT-15 colon; HOP-62 NSCLC; UACC-257 melanoma; LOX IMVI melanoma; SF-295 CNS; EKVX NSCLC; HCC-2998 colon; HCT-116 colon; NCI-H522 lung.
Assay in all cases: NCI tumour cell line growth inhibition, 48 h

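Briefly, cells in 96-well plates were exposed to five compound concentrations for 48 h, and endpoints were estimated by linear interpolation. TGI denotes the concentration required for complete inhibition of growth.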

Regarding `Nc1nc(NNc2ccc(Cl)c(Cl)c2)cc(=O)[nH]1`, the TGI in the test on HOP-92 NSCLC was 79.8 µM; in the test with SR leukemia, over 100 µM; in the test on CCRF-CEM leukemia it was over 100 µM; in the test with M14 melanoma it was over 100 µM; in the test on U251 CNS, 68.3 µM; in the test with NCI-H23 lung, over 100 µM. Besides, the TGI was over 100 µM with SF-539 CNS; over 100 µM in the test with NCI-H460 lung; over 100 µM with OVCAR-4 ovarian; over 100 µM in the test on IGROV1 ovarian; 58.7 µM with HCT-15 colon; over 100 µM in the test with HOP-62 NSCLC. The TGI was over 100 µM in the test with UACC-257 melanoma; 33.1 µM with LOX IMVI melanoma; over 100 µM in the test with SF-295 CNS; over 100 µM in the test with EKVX NSCLC; 44.7 µM in the test on HCC-2998 colon; over 100 µM in the test with HCT-116 colon.
As to `CC(C)(C)OC(=O)NC(Cc1cnc[nH]1)C(=O)N1CCCC1C(N)=O` (configuration not stated), the TGI in the test with HOP-92 NSCLC, in the test with SR leukemia, with CCRF-CEM leukemia, in the test with M14 melanoma, in the test with U251 CNS and in the test with NCI-H23 lung was over 100 µM each time. In addition, the TGI in the test on SF-539 CNS, in the test with NCI-H460 lung, in the test on OVCAR-4 ovarian, with IGROV1 ovarian, in the test on HCT-15 colon and in the test with HOP-62 NSCLC was over 100 µM throughout. Moreover, the TGI in the test on NCI-H522 lung, with UACC-257 melanoma, in the test on LOX IMVI melanoma, in the test with SF-295 CNS, with EKVX NSCLC and with HCC-2998 colon was over 100 µM throughout. In the test on HCT-116 colon, this molecule showed a TGI of over 100 µM.
Take `O=C(Nc1ccccc1C(=O)O)/C(=C/c1ccccc1)NC(=O)c1ccccc1`: the TGI in the test with HOP-92 NSCLC, in the test with SR leukemia, with CCRF-CEM leukemia, in the test on M14 melanoma, in the test on U251 CNS and in the test on NCI-H23 lung was over 100 µM in each case. For the same molecule, the TGI with SF-539 CNS, with NCI-H460 lung, in the test on IGROV1 ovarian, in the test with HCT-15 colon, in the test with HOP-62 NSCLC and with NCI-H522 lung was over 100 µM each time. For the same molecule, the TGI in the test with UACC-257 melanoma, in the test with LOX IMVI melanoma, with SF-295 CNS, in the test with EKVX NSCLC, in the test with HCC-2998 colon and in the test on HCT-116 colon was over 100 µM each time.
Take `CC1C/C(=N\N(C)C)C(C#N)(C#N)C1(C#N)C#N` (configuration not stated): the TGI in the test on HOP-92 NSCLC was 11.6 µM; in the test on SR leukemia, 17.2 µM; in the test on CCRF-CEM leukemia it was over 100 µM; in the test with M14 melanoma, 31.7 µM; in the test on U251 CNS it was 40.1 µM; with NCI-H23 lung, 43.1 µM. Also, the TGI with SF-539 CNS turned out to be 34.8 µM; with OVCAR-4 ovarian it was 25.6 µM; with IGROV1 ovarian, 38.8 µM; in the test with HCT-15 colon, 21.1 µM; in the test on HOP-62 NSCLC it was 39.4 µM; in the test on NCI-H522 lung, 4.13 µM. The TGI with UACC-257 melanoma came to 28 µM; in the test with LOX IMVI melanoma, 19.7 µM; in the test with SF-295 CNS it was 43.2 µM; in the test on EKVX NSCLC it was 56.1 µM; with HCC-2998 colon it was 31.5 µM; in the test on HCT-116 colon it was 38.4 µM.
With `CC1(C)CN=C(Nc2ccc(Cl)cc2)S1`, the TGI in the test with HOP-92 NSCLC, in the test with SR leukemia, in the test on CCRF-CEM leukemia, in the test with M14 melanoma, with U251 CNS and in the test with NCI-H23 lung was over 100 µM in each case. The TGI in the test with SF-539 CNS, in the test with OVCAR-4 ovarian, with IGROV1 ovarian, in the test with HCT-15 colon, in the test with HOP-62 NSCLC and in the test on NCI-H522 lung was over 100 µM in each case. Further, the TGI with UACC-257 melanoma, with LOX IMVI melanoma, in the test on SF-295 CNS, in the test on EKVX NSCLC, with HCC-2998 colon and with HCT-116 colon was over 100 µM each time.
Regarding `O=C(CCc1ccc(O)c(O)c1)NCCc1cc(OCc2ccccc2)cc(OCc2ccccc2)c1`, the TGI is 35.6 µM in the test with HOP-92 NSCLC; 7.18 µM in the test on SR leukemia; 11.5 µM in the test with CCRF-CEM leukemia; 34 µM in the test with M14 melanoma; over 100 µM with U251 CNS; 31 µM in the test with NCI-H23 lung. For the same molecule, the TGI in the test with SF-539 CNS was determined as 30.1 µM; with NCI-H460 lung, 20.2 µM; with IGROV1 ovarian it was 22.5 µM; with HCT-15 colon, 11 µM; with HOP-62 NSCLC, 37 µM; in the test on NCI-H522 lung it was 4.62 µM. Also, the TGI in the test on UACC-257 melanoma was over 100 µM; with LOX IMVI melanoma, 34.5 µM; with SF-295 CNS, 38.9 µM; with EKVX NSCLC, 29.3 µM; in the test with HCC-2998 colon it was 23.5 µM; in the test with HCT-116 colon it was 31.6 µM.
Regarding `C#CCOC(=O)C(N)CSSCC(N)C(=O)O` (configuration not stated), the TGI in the test with HOP-92 NSCLC, with SR leukemia, with CCRF-CEM leukemia, in the test with M14 melanoma, with U251 CNS and in the test with NCI-H23 lung was over 100 µM each time. Moreover, the TGI in the test on SF-539 CNS, in the test on NCI-H460 lung, in the test with OVCAR-4 ovarian, in the test with IGROV1 ovarian, in the test with HCT-15 colon and in the test with HOP-62 NSCLC was over 100 µM in each case. The TGI with NCI-H522 lung, in the test with UACC-257 melanoma, in the test on LOX IMVI melanoma, in the test with EKVX NSCLC, with HCC-2998 colon and in the test on HCT-116 colon was over 100 µM each time.
